{"source": "patent US20250090501A1", "about": "“METHODS OF TREATING GUT MOTILITY DISORDERS” (THE REGENTS OF THE UNIVERSITY OF CALIFORNIA, priority 2022, published 2025)", "key": {"[1]": {"tested_on": "stage 2 enteric ganglioid", "settings": "flow cytometry, stage 2 enteric ganglioids"}, "[2]": {"tested_on": "stage 1 enteric ganglioids", "settings": "MEA"}, "[3]": {"tested_on": "mouse colon", "assay": "Ex vivo colonic motility assay (organ bath, GIMM)", "settings": "for CMMC intervals relative to the untreated condition: first experiment, five consecutive 10-min acquisitions, interval at 75th percentile", "procedure": "Preparation of solutions: Krebs buffer [NaCl (117 mM), KCl (4.7 mM), NaH2PO4 (1.2 mM), MgCl2 (1.5 mM), CaCl2·2H2O (2.5 mM), NaHCO3 (25 mM), Glucose (11 mM), pH 7.4] was placed in a 37° C. water bath and aerated with 95% 02 and 5% CO2 (carbogen) gas mixture for at least 30 minutes prior to experiment onset. “Drug” treatment solutions were freshly prepared by adding the drug compound into Krebs buffer before starting data acquisition. The solution with NOS1 inhibitor was prepared by adding N omega-nitro-L-arginine methyl ester hydrochloride (L-NAME) to the drug solutions making “Drug+L-NAME”.\nTissue dissection: For each experimental replicate, a pair of 8-week-old wild type C57BL6 mice (male) were placed in a sealed chamber and euthanized using CO2 asphyxiation followed by cervical dislocation. The lower GI tract (cecum and colon) was removed and immediately transferred to 37° C. carbogenated Krebs buffer, with the fecal matter still inside. Adipose tissue and mesentery were removed before placing the colons in the organ bath reservoir of gastrointestinal motility monitor (GIMM) apparatus.\nExperimental set-up and procedure: GIMM was designed based on a previously reported model (Swaminathan et al., 2016). The organ reservoir of GIMM has two-chambers for recording two specimens simultaneously. It is connected to working solutions kept at 37° C. via a 4-channel peristaltic pump (WPI, PERIPRO-4LS). Lower GI tract was harvested and transferred to the organ bath with the Krebs buffer was flowing through. The cecum was pinned down at the proximal tip and the distal end of the colon was pinned through the serosa/mesentery. Five 10-min (for the first experiments) or sequential 6-min (for the sequential drug treatment in the presence and absence of L-NAME) videos were recorded using the IC capture software (Imaging Source) with a high resolution monochromatic firewire industrial camera (Imaging Source®, DMK41AF02) connected to a ⅔″ 16 mm f/1.4 C-Mount Fixed Focal Lens (Fujinon HF16SA1). While tissue in the control chamber was only exposed to Krebs solution, the order of solutions in the experimental chamber was: Krebs, drug compound, Krebs (6 min each), L-NAME (2 min), L-NAME in the presence of a drug compound (6 min) and Krebs (6 min). The chambers were cleaned after each acquisition.\nData and statistical analysis: VolumetryG9a was used to generate the spatiotemporal map (STM) of each acquisition (Spear et al., 2018). Slow waves (SW) and colonic migrating motor complexes (CMMC) data were generated from STMs. Statistical analyses were performed using PRISM.\nFor selected compounds, a more comprehensive and integrated target analysis was performed by combining reported experimental data (Binding DB) and computational methods (SEA, Carlsbad, Dinies, Swisstarget, Superdrug, Pubchem Bioassays, FIG. 2G). The effects of these compounds was tested on colonic motility in organ bath assays (FIG. 2H). In these assays, resected segments of mouse colon were maintained in a physiologic buffer to study motility patterns using video recording. In the first experiment the effect of all selected drug candidates was tested on mouse colonic motility, ex vivo (FIG. 2I). In each experiment, an untreated control and a drug-treated colon sample were tested side by side during five consecutive 10-min acquisitions. For each acquisition, instead of analyzing fecal outputs, which are generally variable, more sophisticated contraction analysis was performed by generating spatiotemporal maps from video data based on the changes in the colonic diameter over time, and used to calculate the rate of colonic migrating motor complexes (CMMC) and slow waves (SW)."}, "[4]": {"tested_on": "hESC-derived 2D ENS cultures (NOS1+ cells)", "assay": "High-throughput screening to identify compounds that enrich NO neurons", "format": "cell-based, human", "set-up": "dose or concentration left out as unconfirmed", "settings": "1694 inhibitors, treated D15-D20, read at day 40", "procedure": "Day 15 H9 hESC-derived enteric crestospheres were dissociated into single cells (accutase, Stemcell Technologies, 07920, 30 min, 37° C.), resuspended in ENC medium and were transferred into 384-well plates. Plates were incubated for 2 hours for cells to attach. Using a pin tool, drugs from a library of 1694 inhibitors (SelleckChem, USA) were added to wells at the final concentration of […] and plates were incubated with drugs until D20, when media were changed to ENC with no drugs. At day 40, cells were fixed, stained for NOS1 and imaged using InCellAnalyzer 2000 (GE Healthcare, USA). Hits were selected based on the fold increase of the percentage of NOS1^+ cells relative to the wells treated with vehicle (DMSO).\n(§1) To identify compounds that induce NO neuron differentiation, enteric crestospheres were treated with 1694 compounds in the Selleck inhibitor Library™ and 12 hit compounds that increased the proportion of NOS1^+ neurons by at least eight folds were identified (FIG. 7A and FIG. 8A-B). […] After clustering the predicted protein targets, common patterns emerged for a subset of compounds."}, "[5]": {"tested_on": "stage 1 NOS1::GFP enteric ganglioids", "assay": "NO neuron induction in stage 1 enteric ganglioids (flow cytometry)", "format": "cell-based, human", "settings": "for NO neuron induction / NO neuron proportions in response to RTK ligands: stage 1 enteric ganglioids", "procedure": "List of antibodies and working dilutions is not shown.\nas §1\nTo determine the mechanism by which PP121 induced NO neuron enrichment in ganglioids, a combination of pharmacological and genetic approaches was used. […] The crestosphere snRNA-seq analysis confirmed the expression of PDGFRA, PDGFRB, ERBB2, and ERBB3 while the mRNA for VEGFRs were not detectable (FIG. 7L). The induction efficiency of NO neurons was evaluated in response to PDGF (PDGFR agonist), sunitinib (PDGFR and VEGFR antagonist), NRG1 (ERBBs agonist), and sapitinib (ERBBs antagonist) (FIG. 7M). […] To genetically confirm the role of PDGFR signaling in NO neuron induction, CRISPR-Cas9 was used to knock-out PDGFRA and PDGFRB in the enteric crestospheres and the percentage of NO neurons in stage 1 ganglioids was analyzed. NO neurons were […] in both PDGFRA and PDGFRB knock-out cultures further confirming the PP121 mechanism of action (FIG. 7O-P)."}, "[6]": {"tested_on": "stage 1 enteric ganglioids", "assay": "snRNA-seq comparison of PP121 treated vs control enteric ganglioids", "format": "cell-based, human", "settings": "snRNA-seq sub-clustering", "procedure": "All tubes and pipet tips used for cell harvesting were pre-treated with 1% BSA in 1×PBS. Cells were dissociated in Accutase (Stem Cell) at 37° C., in 10 min increments, with end-to-end rotation, until single cell suspension was obtained. The cells were washed in Cell Staining Buffer (Biolegend) and stained with TotalSeq HTO antibodies for 30 min on ice. The cells were washed twice in Cell Staining Buffer and filtered through a 40 μm pipette tip strainer (BelArt). […] The libraries were sequenced on Illumina NovaSeq sequencer in the Center for Advanced Technologies (UCSF). The cell feature matrices were extracted using kallisto/bustools, and demultiplexed using seurat.\nTo compare the gene expression of control and PP121 treated cell types, neuronal subtypes and NO neuron subtypes, a subset dataset of each cell type and subtype annotation was first created. For each subset, the non-imputed average expression of all genes was then calculated for the control and PP121 treated cells using the “AverageExpression” function and natural log transformed for plotting. R2 values comparing the control and PP121 natural log expression values were calculated from linear modeling using the “y˜x” formula.\nTo compare PP121 treated and untreated stage 1 enteric ganglioids in single cell resolution, snRNA-seq was performed, and both datasets combined."}, "[7]": {"tested_on": "PDGFRs", "settings": "cited from earlier work"}, "[8]": {"tested_on": "VEGFRs", "settings": "cited from earlier work"}, "[9]": {"tested_on": "EGFRs", "settings": "cited from earlier work"}, "[10]": {"settings": "6-min treatment, all five replicates"}}, "data": [{"compound": "CNC[C@H](O)c1ccc(O)c(O)c1", "note": "[Epinephrine, epinephrine]", "values": [{"measurement": "neuronal cFOS expression", "setting": "[1]", "result": "induced neuronal cFOS expression"}, {"measurement": "electrical firing of ganglioid neurons", "setting": "[2]", "result": "increased electrical firing"}]}, {"compound": "Cc1cccc(C#Cc2ccccc2)n1", "note": "[MPEP]", "values": [{"measurement": "CMMC intervals relative to the untreated condition", "setting": "[3]", "result": "promising effects on lowering CMMC intervals"}]}, {"compound": "Nc1ncnc2c1c(-c1cnc3[nH]ccc3c1)nn2C1CCCC1", "note": "[PP121]", "values": [{"measurement": "fold increase of the percentage of NOS1+ cells relative to vehicle (DMSO)", "setting": "[4]", "result": "highest % NOS1^+ fold increase in this subset of compounds"}, {"measurement": "NO neuron induction efficiency by treatment window", "setting": "[5]; 2 μM PP121, five days at various time points, GFP signal", "result": "highest induction efficiency for cells treated during day 15-20"}, {"measurement": "NO neuron induction efficiency, concentration dependence", "setting": "[5]; different PP121 concentrations at D15-D20, flow cytometry", "result": "dose-dependent effect"}, {"measurement": "abundance of neuronal subtypes", "setting": "[6]", "result": "enriched cultures for neuronal subtypes EN D and H"}, {"measurement": "inhibitory activity on PDGFRs", "setting": "[7]", "result": "known inhibitory activity"}, {"measurement": "inhibitory activity on VEGFRs", "setting": "[8]", "result": "known inhibitory activity"}, {"measurement": "inhibitory activity on EGFRs", "setting": "[9]", "result": "known inhibitory activity"}]}, {"compound": "O=C1CCc2ccc(OCCCCN3CCN(c4cccc(Cl)c4Cl)CC3)cc2N1", "note": "[aripiprazole]", "values": [{"measurement": "CMMC intervals relative to the untreated condition", "setting": "[3]", "result": "promising effects on lowering CMMC intervals"}]}, {"compound": "Cc1cccc([C@H](C)c2cnc[nH]2)c1C", "note": "[dexmedetomidine]", "values": [{"measurement": "average duration of LCEs", "setting": "[3]; [10]", "result": "increasing trend"}, {"measurement": "total number of longitudinal contractile events (LCEs)", "setting": "[3]; [10]", "result": "decrease"}, {"measurement": "effects on LCEs after the drug removal", "setting": "[3]; Krebs washout", "result": "reversed"}, {"measurement": "effects on LCEs with L-NAME co-treatment", "setting": "[3]; L-NAME co-treatment", "result": "blocked"}, {"measurement": "effect on CMMC intervals with L-NAME", "setting": "[3]; dexmedetomidine+L-NAME simultaneously", "result": "absent"}, {"measurement": "CMMC intervals relative to the untreated condition", "setting": "[3]", "result": "promising effects on lowering CMMC intervals"}, {"measurement": "CMMC intervals", "setting": "[3]; sequential 6-min treatments, five sample pairs, 1 μM, drug alone", "result": "decreased CMMC intervals in four out of five colon samples"}]}, {"compound": "O=C1CCC[C@@H]2[C@H]3CCCN4CCC[C@@H](CN12)[C@@H]34", "note": "[matrine]", "values": [{"measurement": "CMMC intervals relative to the untreated condition", "setting": "[3]", "result": "promising effects on lowering CMMC intervals"}]}, {"compound": "CNC(=O)CN1CCC(Oc2cc3c(Nc4cccc(Cl)c4F)ncnc3cc2OC)CC1", "note": "[sapitinib]", "values": [{"measurement": "NO neuron induction / NO neuron proportions in response to RTK ligands", "setting": "[5]", "result": "no significant effect"}]}, {"compound": "PDGF", "values": [{"measurement": "NO neuron induction / NO neuron proportions in response to RTK ligands", "setting": "[5]", "result": "lower"}]}]}
